Test results as given in patent US11787775B2, “Therapeutic compounds and methods of use” (priority 2020, dated 2023).

Columns and labels:
Assay type in all cases: binding
[1] = target: TEAD4 (Homo sapiens (Human), UniProt Q15561); assay: TEAD lipid pocket TR-FRET (Lipid HTRF) probe competition assay; conditions: 30 mins incubation with compound; read-out: Lipid HTRF TEAD4 IC50
Description: (§1) His-tagged TEAD proteins are pre-incubated with TEAD project compounds for 30 minutes or 4 hours at room temperature. Biotinylated lipid pocket probes are then added to the TEAD/Compound mixture and incubated for 60 minutes at room temperature. The lipid pocket probe competes with the test compound for the TEAD lipid pocket until equilibrium is reached. After 60 minutes, Europium labelled anti-His (Perkin Elmer #ADO 110) and XL665 labelled streptavidin (CIS Bio 610SAXAC) are added to the TEAD/test compound/lipid pocket mixture and incubated for 30 minutes or 4 hours. […] If a TEAD lipid pocket binder such as binds and displaces the lipid pocket probe, the disruption of the TEAD:probe interaction results in a decrease in TR-FRET signal. The potency of compounds as TEAD lipid pocket binders is determined by IC50 value generated using a non-linear 4 parameter curve fit.
(§2) Note that the “Compound Number” in Table 2 and Table 3 corresponds to the “Compound Number” in Table 1.

[2] = target: TEAD2 (Homo sapiens (Human), UniProt Q15562); assay: as above; conditions: 30 mins incubation with compound; read-out: Lipid HTRF TEAD2 IC50
Description: as §1, §2

[3] = target: TEAD1 (Homo sapiens (Human), UniProt P28347); assay: as above; conditions: 30 mins incubation with compound; read-out: Lipid HTRF TEAD1 IC50
Description: as §1, §2

[4] = target: TEAD3 (Homo sapiens (Human), UniProt Q99594); assay: as above; conditions: 30 mins incubation with compound
Description: as §1, §2

[5] = target: TEAD1 YAP50-100 (Homo sapiens (Human), UniProt P28347); assay: TEAD-YAP protein-protein interaction HTRF assay; conditions: TEAD1 YAP50-100 HTRF combined EC50, 30 mins incubation with compound
Description: (§3) Purified His-tagged TEAD protein (YAP Binding Domain, amino acids 217-447) is pre-incubated with Europium labelled anti-His antibody tracer (Perkin Elmer Cat #AD0110). Small molecule Inhibitors are then incubated with the TEAD-Eu protein complex for 30 minutes or 4 hours to allow for binding to TEAD protein. Biotinylated YAP peptide for TEAD-YAP assays (AA's 50-100) or biotinylated TAZ peptide for TEAD-TAZ assays (AA's 13-57) that has been pre-incubated with streptavidin −xl665 acceptor (CIS-Bio Cat #610SAXAC) or is added to the compound-TEAD mix. The TEAD-YAP-inhibitor mixture is then incubated for 60 minutes at room temperature. All reactions are carried out in a polystyrene plate. After 60 minutes, the plate is read on a plate reader using TR-FRET mode with wavelengths of 665 nm/615 nm. If YAP or TAZ binds to TEAD as expected, a TR-FRET signal results from the proximity of YAP or TAZ and TEAD after binding. If an inhibitor such as peptide 17 (Selleckchem Cat #S8164) interferes with YAP-TEAD or TAZ-TEAD binding, the disruption of the YAP or TAZ:TEAD interaction results in a decrease in TR-FRET signal. The potency of compounds as YAP:TEAD or TAZ:TEAD protein-protein interaction (PPi) inhibitors is determined by an IC50 or EC50 value generated using a non-linear four parameter curve fit. The extent to which representative examples of the disclosed compounds are able to inhibit interaction between TEAD1, TEAD2, TEAD3 or TEAD4 and YAP truncated from amino acids 50-100 or TAZ truncated from amino acids 13-57 as measured by Homogeneous Time Resolved Fluorescence (HTRF) to generate EC50 and IC50 data.
(§4) Note that the “Compound Number” in Table 4 corresponds to the “Compound Number” in Table 1. […]

[6] = target: TEAD2 YAP50-100 (Homo sapiens (Human), UniProt Q15562); assay: TEAD-YAP protein-protein interaction HTRF assay; conditions: TEAD2 YAP50-100 HTRF combined EC50, 30 mins incubation with compound
Description: as §3, §4

[7] = target: TEAD3 YAP50-100 (Homo sapiens (Human), UniProt Q99594); assay: TEAD-YAP protein-protein interaction HTRF assay; conditions: TEAD3 YAP50-100 HTRF combined EC50, 30 mins incubation with compound
Description: as §3, §4

[8] = target: TEAD4 YAP50-100 (Homo sapiens (Human), UniProt Q15561); assay: TEAD-YAP protein-protein interaction HTRF assay; conditions: TEAD4 YAP50-100 HTRF combined EC50, 30 mins incubation with compound
Description: as §3, §4

Sequence of TEAD4 (Q15561 whole entry, species assumed): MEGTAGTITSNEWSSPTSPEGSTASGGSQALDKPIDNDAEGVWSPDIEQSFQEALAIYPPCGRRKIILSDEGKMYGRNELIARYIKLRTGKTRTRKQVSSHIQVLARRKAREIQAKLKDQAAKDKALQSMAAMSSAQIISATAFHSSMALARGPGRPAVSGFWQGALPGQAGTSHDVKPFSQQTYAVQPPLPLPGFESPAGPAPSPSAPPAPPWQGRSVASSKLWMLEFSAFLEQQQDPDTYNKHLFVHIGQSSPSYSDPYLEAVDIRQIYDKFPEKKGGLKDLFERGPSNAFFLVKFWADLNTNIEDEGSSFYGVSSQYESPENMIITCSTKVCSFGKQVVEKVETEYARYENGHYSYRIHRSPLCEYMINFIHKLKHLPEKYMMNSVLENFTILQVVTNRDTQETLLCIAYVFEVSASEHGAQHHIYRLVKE
Sequence of TEAD3 (Q99594 whole entry, species assumed): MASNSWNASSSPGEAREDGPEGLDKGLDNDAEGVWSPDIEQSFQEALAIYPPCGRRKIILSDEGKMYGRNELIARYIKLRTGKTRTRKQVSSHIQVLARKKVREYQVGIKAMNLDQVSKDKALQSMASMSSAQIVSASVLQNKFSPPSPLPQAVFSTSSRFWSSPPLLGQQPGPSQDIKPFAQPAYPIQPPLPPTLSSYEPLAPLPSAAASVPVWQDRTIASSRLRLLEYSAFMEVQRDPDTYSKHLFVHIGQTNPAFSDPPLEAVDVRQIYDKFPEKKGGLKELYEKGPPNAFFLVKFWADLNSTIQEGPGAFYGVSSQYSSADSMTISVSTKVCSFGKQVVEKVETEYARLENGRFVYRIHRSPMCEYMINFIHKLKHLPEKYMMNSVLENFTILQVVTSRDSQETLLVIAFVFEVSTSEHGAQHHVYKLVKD
Sequence of TEAD3 YAP50-100 (Q99594 218-435): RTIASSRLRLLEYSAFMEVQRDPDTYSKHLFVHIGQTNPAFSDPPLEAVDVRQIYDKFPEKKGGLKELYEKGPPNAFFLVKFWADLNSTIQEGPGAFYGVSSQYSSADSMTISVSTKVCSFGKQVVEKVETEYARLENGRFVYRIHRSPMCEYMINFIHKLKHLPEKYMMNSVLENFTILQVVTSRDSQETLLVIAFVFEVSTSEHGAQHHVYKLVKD
Sequence of TEAD1 (P28347 whole entry, species assumed): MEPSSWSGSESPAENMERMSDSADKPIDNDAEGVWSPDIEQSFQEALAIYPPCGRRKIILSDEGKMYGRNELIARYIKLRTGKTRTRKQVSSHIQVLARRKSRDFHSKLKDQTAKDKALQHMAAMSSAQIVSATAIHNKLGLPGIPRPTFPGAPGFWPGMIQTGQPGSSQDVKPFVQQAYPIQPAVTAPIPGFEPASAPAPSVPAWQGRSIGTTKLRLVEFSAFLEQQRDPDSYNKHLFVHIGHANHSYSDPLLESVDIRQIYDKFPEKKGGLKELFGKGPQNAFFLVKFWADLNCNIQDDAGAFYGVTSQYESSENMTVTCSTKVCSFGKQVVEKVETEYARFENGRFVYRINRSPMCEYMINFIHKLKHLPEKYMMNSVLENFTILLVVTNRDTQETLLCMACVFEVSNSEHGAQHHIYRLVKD
Sequence of TEAD4 YAP50-100 (Q15561 217-434): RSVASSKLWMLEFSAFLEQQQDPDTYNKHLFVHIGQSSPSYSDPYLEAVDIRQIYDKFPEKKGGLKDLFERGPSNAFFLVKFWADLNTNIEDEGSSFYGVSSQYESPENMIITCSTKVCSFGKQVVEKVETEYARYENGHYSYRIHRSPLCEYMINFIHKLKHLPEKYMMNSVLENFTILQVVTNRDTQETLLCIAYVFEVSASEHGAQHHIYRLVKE
Sequence of TEAD2 (Q15562 whole entry): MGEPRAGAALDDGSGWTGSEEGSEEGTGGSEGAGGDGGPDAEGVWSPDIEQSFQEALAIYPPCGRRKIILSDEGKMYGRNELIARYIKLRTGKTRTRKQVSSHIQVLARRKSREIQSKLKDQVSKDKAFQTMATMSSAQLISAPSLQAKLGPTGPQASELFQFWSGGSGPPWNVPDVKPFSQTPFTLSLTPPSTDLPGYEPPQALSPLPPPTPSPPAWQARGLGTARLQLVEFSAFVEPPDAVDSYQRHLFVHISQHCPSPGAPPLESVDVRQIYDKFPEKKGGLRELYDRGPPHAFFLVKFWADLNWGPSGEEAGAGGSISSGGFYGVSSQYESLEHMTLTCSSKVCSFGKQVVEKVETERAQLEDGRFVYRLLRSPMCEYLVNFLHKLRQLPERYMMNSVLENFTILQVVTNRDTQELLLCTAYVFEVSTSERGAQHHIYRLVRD
Sequence of TEAD1 YAP50-100 (P28347 209-426): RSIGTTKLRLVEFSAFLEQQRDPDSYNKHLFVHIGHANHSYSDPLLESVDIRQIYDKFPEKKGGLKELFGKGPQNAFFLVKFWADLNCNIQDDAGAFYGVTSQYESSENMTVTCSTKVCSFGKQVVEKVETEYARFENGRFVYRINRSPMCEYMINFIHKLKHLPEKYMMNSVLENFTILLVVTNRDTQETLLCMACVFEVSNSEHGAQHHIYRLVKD
Sequence of TEAD2 YAP50-100 (Q15562 217-447): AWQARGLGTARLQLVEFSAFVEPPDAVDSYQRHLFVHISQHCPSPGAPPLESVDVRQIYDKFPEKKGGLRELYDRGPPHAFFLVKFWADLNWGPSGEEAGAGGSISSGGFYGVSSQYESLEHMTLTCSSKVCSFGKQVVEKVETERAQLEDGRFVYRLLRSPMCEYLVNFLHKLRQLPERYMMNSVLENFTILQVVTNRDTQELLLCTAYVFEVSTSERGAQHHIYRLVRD

Structure (SMILES) | IC50 [1] | IC50 [2] | IC50 [3] | IC50 [4] | EC50 [5] | EC50 [6] | EC50 [7] | EC50 [8]
C=C(CNc1cc(-c2ccc(C(C)C)cc2)c2c(c1CO)CCO2)C(=O)O [Compound 12, 2-[[[4-(hydroxymethyl)-7-(4-isopropylphenyl)-2,3-dihydrobenzofuran-5-yl]amino]methyl]prop-2-enoic acid] | 470 nM | 930 nM | 1500 nM | 47000 nM | 780 nM | 300 nM | > 50000 nM | 750 nM
C=C(CNc1cc(-c2ccc(C(C)C)cc2)c2c(c1C#N)CCO2)C(=O)N(C)C [Compound 6, 2-[[[4-cyano-7-(4-isopropylphenyl)-2,3-dihydrobenzofuran-5-yl]amino]methyl]-N,N-dimethyl-prop-2-enamide] | 500 nM | 3500 nM | 1100 nM | > 50000 nM | 970 nM | 2800 nM | > 50000 nM | 1000 nM
C=C(CNc1cnc(OC)c(/C=C/[C@H]2CC[C@H](C(F)(F)F)CC2)c1)C(=O)O [Compound 25, 2-[[[6-methoxy-5-[(E)-2-[trans-4-(trifluoromethyl)cyclohexyl]vinyl]-3-pyridyl]amino]methyl]prop-2-enoic acid] | 140 nM | 270 nM | 580 nM | 1250 nM | > 50000 nM | > 50000 nM | > 50000 nM | > 50000 nM
C=C(CNc1cc(-c2c(F)cc(C(C)C)cc2F)c2c(c1C#N)CCO2)C(=O)O [Compound 28, 2-[[[4-cyano-7-(2,6-difluoro-4-isopropyl-phenyl)-2,3-dihydrobenzofuran-5-yl]amino]methyl]prop-2-enoic acid] | 320 nM | 350 nM | 690 nM | 16000 nM | > 50000 nM | > 50000 nM | > 50000 nM | > 50000 nM
C=C(CNc1cc(-c2ccc(C(C)C)cc2)c2c(c1C#N)CCO2)C(N)=O [Compound 4, 2-[[[4-cyano-7-(4-isopropylphenyl)-2,3-dihydrobenzofuran-5-yl]amino]methyl]prop-2-enamide] | 80 nM | 100 nM | 320 nM | 10000 nM | 230 nM | 50 nM | 13000 nM | 160 nM
C=C(CNc1cc(-c2ccc(C(C)C)cc2)c2c(c1F)CCO2)C(=O)O [Compound 21, 2-[[[4-fluoro-7-(4-isopropylphenyl)-2,3-dihydrobenzofuran-5-yl]amino]methyl]prop-2-enoic acid] | 20 nM | 70 nM | 60 nM | 4000 nM | 40 nM | < 10 nM | > 50000 nM | 30 nM
C=C(CNc1cc(-c2ccc(C(C)C)cc2)c2c(c1C(N)=O)CCO2)C(=O)O [Compound 34, 2-[[[4-carbamoyl-7-(4-isopropylphenyl)-2,3-dihydrobenzofuran-5-yl]amino]methyl]prop-2-enoic acid] | 330 nM | 970 nM | 1800 nM | > 50000 nM | 1000 nM | 580 nM | > 50000 nM | 700 nM
C=C(CNc1cc(-c2ccc(C(C)C)cc2)c2c(c1C#N)CCO2)C(=O)OC [Compound 8, methyl 2-[[[4-cyano-7-(4-isopropylphenyl)-2,3-dihydrobenzofuran-5-yl]amino]methyl]prop-2-enoate] | 20 nM | 40 nM | 70 nM | 240 nM | > 50000 nM | > 50000 nM | > 50000 nM | > 50000 nM
C=C(CNc1nc2c(c(-c3ccc(C(C)C)cc3)n1)OCC2)C(=O)O [Compound 20, 2-[[[4-(4-isopropylphenyl)-6,7-dihydrofuro[3,2-d]pyrimidin-2-yl]amino]methyl]prop-2-enoic acid] | 20 nM | 70 nM | 200 nM | 3800 nM | 150 nM | 40 nM | > 50000 nM | 40 nM
C=C(CNc1cc(-c2ccc(C(C)C)cc2)c2c(c1S(C)(=O)=O)CCO2)C(=O)O [Compound 50, 2-[[[7-(4-isopropylphenyl)-4-methylsulfonyl-2,3-dihydrobenzofuran-5-yl]amino]methyl]prop-2-enoic acid] | 590 nM | 100 nM | 740 nM | 44500 nM | 530 nM | 80 nM | 17000 nM | 2000 nM
C=C(CNc1cc(-c2ccc(C(C)C)cn2)c2c(c1C#N)CCO2)C(=O)O [Compound 47, 2-[[[4-cyano-7-(5-isopropyl-2-pyridyl)-2,3-dihydrobenzofuran-5-yl]amino]methyl]prop-2-enoic acid] | 1500 nM | 2700 nM | 2200 nM | > 50000 nM | 1900 nM | 1900 nM | > 50000 nM | 3400 nM
C=C(CNc1cc2c(c(-c3ccc(C(C)C)cc3)c1)OCC2)C(=O)O [Compound 1, 2-[[[7-(4-isopropylphenyl)-2,3-dihydrobenzofuran-5-yl]amino]methyl]prop-2-enoic acid] | 40 nM | 220 nM | 220 nM | 8400 nM | 170 nM | 100 nM | > 50000 nM | 50 nM
C=C(CNc1cc(-c2ccc(C(C)C(F)(F)F)cc2)c2c(c1C#N)CCO2)C(=O)O (single isomer, unassigned) [Enantiomer D from Example 16, 2-(((4-cyano-7-(4-(1,1,1-trifluoropropan-2-yl)phenyl)-2,3-dihydrobenzofuran-5-yl)amino)methyl)acrylic acid] | 30 nM | 160 nM | 80 nM | 6100 nM | 40 nM | 70 nM | > 50000 nM | 100 nM
C=C(CNc1cc(-c2ccc(C(C)C)cc2)c2c(c1C#N)CCO2)C(=O)NC [Compound 5, 2-[[[4-cyano-7-(4-isopropylphenyl)-2,3-dihydrobenzofuran-5-yl]amino]methyl]-N-methyl-prop-2-enamide] | 1300 nM | 2000 nM | 1600 nM | > 50000 nM | > 50000 nM | > 50000 nM | > 50000 nM | > 50000 nM
